The values below come from US20170038365A1, “SMALL MOLECULE INHIBITORS OF 8-OXOGUANINE DNA GLYCOSYLASE-1 (OGG1)” (OREGON HEALTH & SCIENCE UNIVERSITY, priority 2015, published 2017).

The target in data set [1] is T1, OGG1 (Homo sapiens, UniProt O15527).
T1 construct: His tag; made in house; host or cells: bacterial culture (LB media, IPTG induction)
Description: fluorescence-based OGG1 activity assay (TAMRA/BHQ2 8-oxo-Gua substrate). Type of data set: biochemical. As to conditions: read-out: IC50 (OGG1 inhibition). On the procedure: The OGG1 activity assay utilized a 17-mer oligodeoxynucleotide that contained an 8-oxo-Gua positioned 6 deoxynucleotides downstream of a 5′-TAMRA fluorophore and a complementary DNA strand that contained a 3′-Black Hole Quencher 2 (BHQ2) (FIG. 1). […] Therefore, inhibitors of OGG1 activity would be expected to result in a weaker fluorescence signal over time compared to a no inhibitor control.
The fluorescence-based assay outlined in FIG. 2A was performed in black, low volume 384-well plates with a final volume of 10 μL per well. […] Plates were incubated for 30 min at 37° C. and TAMRA fluorescence in each well was measured using the Biotek Synergy 4 platereader (Filters=Ex 528/20, Em 600/40. Mirror=Top 570 nm with polarizer). Background-subtracted fluorescence values were calculated for each well and any compound that had ≧40% decrease in fluorescence compared to the no inhibitor control was identified as a hit. […]
Assays to calculate IC50 values of OGG1, NEIL1, and NTH1 were fundamentally similar to the high-throughput screen except that the step for the addition of drug differed and a lower enzyme concentration was used. […] Plates were incubated at 37° C. for 40 min (OGG1), 5 min (NEIL1), and 10 min (NTH1), followed by the measurement of TAMRA fluorescence. […]

Data set [2] deals with T1, OGG1. Kind of data set: OGG1 glycosylase activity on γ-irradiated calf thymus DNA by GC-MS/MS. It is filed as biochemical. As to conditions: 0.1 μmol inhibitor. The protocol: FIG. 5B is a bar graph of OGG1 glycosylase activity measured on irradiated calf thymus DNA. The number of excised 8-oxo-Gua per 10^6 DNA bases was measured by GC-MS/MS. Graph plots equal the mean of three independent experiments. The uncertainties are standard deviations.
FIG. 5C is a bar graph of OGG1 glycosylase activity measured on irradiated calf thymus DNA. The number of excised FapyGua per 10^6 DNA bases was measured by GC-MS/MS. Graph plots equal the mean of three independent experiments. The uncertainties are standard deviations.
(§1) Hydrazides Inhibit the Glycosylase and Lyase Activities of OGG1. To verify the results of the fluorescence-based assay, gel-based assays were performed to detect OGG1-mediated strand cleavage of an 8-oxo-Gua-containing substrate at eight different inhibitor concentrations (FIG. 4). […] There are at least three possibilities that could account for how these molecules inhibit DNA strand cleavage by OGG1. […] This assay used γ-irradiated calf thymus DNA as a substrate and measured the number of free 8-oxo-Gua and FapyGua in solution released by OGG1. […]
The enzymatic activities of OGG1, NEIL1 and NTH1 were measured using gas chromatography/isotope-dilution tandem mass spectrometry (GC-MS/MS) and calf thymus DNA samples γ-irradiated at 20 Gy as described in Jaruga et al 2008 infra and Reddy et al, 2013 infra. […]

For data set [3], the target named is T1, OGG1. Description: OGG1 AP lyase activity on AP site-containing substrate (gel). Type of data set: biochemical. The settings on record: 10 μM compound, compared to no inhibitor control. On the procedure:
FIG. 5A is a bar graph of OGG1 lyase activity on a substrate containing an AP site. The substrate was incubated without OGG1 (No Enz), with OGG1 (No Inh), or with OGG1+10 μM compound. The top band in each gel corresponds to uncleaved substrate and the bottom band is cleaved product. Mean percent cleavage compared to the no inhibitor control (% Activity) was plotted for three independent experiments. The uncertainties are standard deviations.
as §1
(§2) Gel-based assays were performed by combining 4 μL of 2.5×OGG1 (62.5 nM) with 1 μL 10× inhibitor or buffer. […] Samples were analyzed by electrophoresis on a 15% polyacrylamide gel containing 8 M urea and bands were visualized by a FluorChem M imager (Protein Simple). Band intensities were quantified using the Image Studio Lite Software (LI-COR).

Data set [4] addresses T1, OGG1. Kind of data set: sodium cyanoborohydride trapping assay of OGG1 and substrate. Type of data set: biochemical. As to conditions: 10 μM inhibitor, 1 mM NaBH3CN. The protocol: FIG. 6B is an image and bar graph of Sodium cyanoborohydride trapping of OGG1 and substrate. OGG1 was incubated with 8-oxo-Gua- (top gel), AP site- (bottom gel) or U-containing (last lane in each gel) substrates with or without 10 μM inhibitor or INH. Reactions were performed in the presence of 1 mM NaBH3CN. Top band in each gel corresponds to OGG1 trapped to substrate and the bottom band is untrapped substrate. Bands were quantified in each gel and the percent trapped compared to the no inhibitor control was plotted for each compound. Graph plots equal the mean of three independent experiments. The uncertainties are standard deviations.
FIG. 11 is an image and plot of a dose response for O8 trapping. […] Bands were quantified in each gel and the percent trapped compared to the no inhibitor control (% Trapped) was plotted for each compound. […] Mean T50 values in μM±std. dev. were calculated as described above.
To test whether these inhibitors interfere with catalysis, trapping experiments were conducted by carrying out the OGG1 activity assay in the presence of sodium cyanoborohydride. […] These values are slightly higher, but still very close to the calculated IC50 value for this inhibitor (Table 1).
A total of 4 μL of 2.5×OGG1 (125 nM) was mixed with 1 μL of 10× inhibitor. […] Band intensities were quantified using the Image Studio Lite Software. […]

In data set [5] the target is T1, OGG1. Description: gel-based OGG1 cleavage assay on 8-oxo-Gua-containing substrate. It is filed as biochemical. As to conditions: eight inhibitor concentrations 0.008-25 μM. On the procedure:
FIG. 4A is an image and plot showing a gel-based OGG1 activity assay of compound O8. 8-oxo-Gua-containing substrate was incubated without OGG1 (No Enz), with OGG1 (No Inh), or with OGG1+8 different concentrations (25, 8, 2.5, 0.8, 0.25, 0.08, 0.025, 0.008 μM) of inhibitors. The top band in the gel corresponds to uncleaved substrate and the bottom band is cleaved product. The Y-axis on each graph equals the percent substrate cleavage compared to the no inhibitor control (% Activity). Data points equal the mean of three independent experiments. The uncertainties are standard deviations.
Hydrazides Inhibit the Glycosylase and Lyase Activities of OGG1. To verify the results of the fluorescence-based assay, gel-based assays were performed to detect OGG1-mediated strand cleavage of an 8-oxo-Gua-containing substrate at eight different inhibitor concentrations (FIG. 4). […] This assay used γ-irradiated calf thymus DNA as a substrate and measured the number of free 8-oxo-Gua and FapyGua in solution released by OGG1. […]
as §2

Data set [6] addresses OGG1 (8-oxoguanine DNA glycosylase-1) (Homo sapiens, UniProt O15527 O15527:1-345). Description: EMSA; 50 nM OGG1, 25 nM DNA, on ice 5 min; also trapped by NaBH3CN (FIG. 6B); binding abrogated by ATA, unaffected by the five inhibitors. As to conditions: tags: His-tag; expressed in bacteria, Ni-NTA purified; label: 5'-TAMRA; 3'-BHQ2 on complement in fluorescence assay.
Description: To test whether these inhibitors affected OGG1 binding to an 8-oxo-Gua or AP site, gel shift assays were performed.
All experiments were performed on ice with pre-cooled reagents. […] 5 μL 2× substrate (50 nM) was added, mixed and kept on ice for 5 min. The reaction was quenched with 10 μL ice-cold 30% glycerol and loaded onto a pre-cooled 8% native gel containing 30% glycerol. The gel was run at 4° C. for 1 h (75 V) and bands were visualized by a FluorChem M imager. Band intensities were quantified using the Image Studio Lite Software.

T1 sequence (O15527 whole entry): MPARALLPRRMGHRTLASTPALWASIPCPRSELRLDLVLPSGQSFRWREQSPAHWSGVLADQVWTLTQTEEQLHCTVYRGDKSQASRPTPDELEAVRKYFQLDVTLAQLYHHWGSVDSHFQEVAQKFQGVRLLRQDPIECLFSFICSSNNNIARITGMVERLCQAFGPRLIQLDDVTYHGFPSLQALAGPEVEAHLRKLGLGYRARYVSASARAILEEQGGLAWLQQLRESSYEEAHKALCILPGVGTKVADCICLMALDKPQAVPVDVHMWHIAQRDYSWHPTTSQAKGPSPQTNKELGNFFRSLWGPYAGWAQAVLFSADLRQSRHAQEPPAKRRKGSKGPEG
OGG1 (8-oxoguanine DNA glycosylase-1), sequence (O15527 whole entry, one chain of several): as the sequence (O15527 whole entry) above

Take `NC(=O)c1cc2ccccc2cc1O` [3-hydroxy-2-naphthamide]: the IC50 – broadly, the concentration at which inhibition is half-maximal – on OGG1 [1] was above 50000 nM. As to `NNC(=O)c1cc2ccccc2cc1O` [3-hydroxy-2-naphthohudrazide], the IC50 at OGG1 [1] was found to be 75 nM. `Cc1cc(C(=O)NNCc2ccccc2)no1` [ICD, isocarboxazid]: the “OGG1-mediated excision of 8-oxo-Gua and FapyGua” value at OGG1 [2] is “little to no decrease”. Besides, at OGG1 [3], the “effect on OGG1-induced cleavage of an AP site (AP lyase activity)” value was “no effect”. On to `NNC(=O)c1ccncc1` [INH, isoniazid], for which the “OGG1-mediated excision of 8-oxo-Gua and FapyGua” value at OGG1 [2] is given as “little to no decrease”. Besides, at OGG1 [3], the “effect on OGG1-induced cleavage of an AP site (AP lyase activity)” value is listed as “no effect”. Further, the “effect on trapping of OGG1 (Schiff base formation) on 8-oxo-Gua- and AP site-containing substrates” value at OGG1 [4] is given as “no effect”. Also, at OGG1 [5], the “inhibition of OGG1-mediated strand cleavage of 8-oxo-Gua-containing substrate” value is recorded as “no inhibition”.

B1: 8-oxo-Gua 17-mer duplex (dsDNA)
DNA 1: TCACCGTCGTACGACTC
DNA 2: GAGTCGTACGACGGTGA
modifications: n is 8-oxo-guanine; complement SEQ:2 appears printed 3'-5' [6 (8-oxo-guanine)]
For the molecule B1, in data set [6], the binding result was “binds”.
